# Where “and” joins values, the source holds several entries; their conditions need not be identical. Equal values may be shown once.
# Tested on: 3T3-L1 adipocytes
# Assay: [3H]-2-deoxy-glucose uptake by adipocytes
# Type: cell-based, Murine
# Procedure: To determine if one mechanism for glyceollins to improve the oral glucose challenge in a prediabetic model is by increasing the glucose uptake by fat, glyceollin pharmacology was studied in 3T3-L1 cells. Murine preadipocytes (Zen-Bio Inc.) were cultured using PM-1-L1 medium (Zen-Bio Inc.) containing Dulbecco's modified Eagle's medium (DMEM)/Ham's F-10 medium (1:1, v/v), HEPES 15 mM (pH 7.4), 10% (v/v) fetal bovine serum, penicillin (100 U/ml), streptomycin ([…]), and amphotericin B (0.25 μg/ml) in a humidified atmosphere (5% CO2/95% air). After 3-4 days, confluent cells were placed in differentiation medium (DM-2-L1, Zen-Bio Inc.) containing DMEM/Ham's F-10 medium (1:1, v/v), HEPES 15 mM (pH 7.4), 3% (v/v) fetal bovine serum, biotin (33 μM), pantothenate (17 μM), human insulin (100 nM), dexamethasone (1 μM), penicillin (100 U/ml), streptomycin (100 μg/ml), amphotericin B (0.25 μg/ml), isobutylmethylxanthine ([…]) and PPARγ agonist (10 μM) and further incubated in the humidified atmosphere for 3 days. […]
# Adipocytes were rinsed in sterile, fresh KRH buffer (HEPES pH=7.4, 1 mM CaCl2, 1.2 mM MgSO4, 1 mM KH2PO4, 1.4 mM KCl, […], 130 mM NaCl), and then preincubated for 24 h in KRH buffer. […] The vials were mixed and counted for 10 min in an Applied Biosystems 1100 liquid scintillation counter using the factory preset window to detect tritium.
substance,measurement,setting,value
insulin,EC50,"30 min exposure at 37° C., 0.3-300 nM, n=6, read-out: EC50 of insulin-mediated glucose uptake",1.9 nM and 1.92 nM
same,maximal stimulation of glucose uptake relative to basal,insulin 0.3 nM-300 nM,about 3 times

# Reference: US20140275233A1, “ACTIVATED SOY POD FIBER” (priority 2013, published 2014)
